Measured values: patent US20250129073A1, “INHIBITOR OF RECEPTOR-INTERACTING PROTEIN KINASE 1, AND PREPARATION METHOD AND USE THEREFOR” (CHINA PHARMACEUTICAL UNIVERSITY, priority 2021, published 2025)
pEC50, pIC50: −log10 of the molar value.

Legend:
[1] = tested on: rat model of ischemic stroke (MCAO); assay: Rat MCAO cerebral ischemia/reperfusion model of ischemic stroke; type: in vivo; settings: tMCAO rats
Experimental: Animals: SPF-grade male Sprague Dawley (SD) rats (purchased from Beijing Weitonglihua Experimental Animal Technology Co., Ltd.). Rats were fed with a free diet, 12 h: 12 h circadian rhythm.
Material: 2,3,5-Triphenyltetrazolium chloride (purchased from Beijing Solebo Technology Co., Ltd.), N,N-Dimethylacetamide (purchased from Shanghai Aladdin Biochemical Technology Co., Ltd.), castor oil polyoxyethylene ether (purchased from Shanghai McLean Biochemical Technology Co., Ltd.), sodium chloride (purchased from Bioengineering (Shanghai) Co., Ltd.), isoflurane (purchased from Shenzhen ruiwode Life Technology Co., Ltd.), and Sodium dihydrogen phosphate (purchased from Sinopharm group), disodium hydrogen phosphate (purchased from Sinopharm group), paraformaldehyde (purchased from biotechnology (Shanghai) Co., Ltd.) and thread bolt (purchased from Beijing Xinong Technology Co., Ltd.).
Methods: A rat model of ischemic stroke was established by middle cerebral artery occlusion (MCAO) of cerebral ischemia/reperfusion: Healthy male SD rats (weighing 260±40 g) were anesthetized with 5% isoflurane and maintained with 1.5%-2% isoflurane. The rats were fixed in the supine position, and the right common carotid artery, internal carotid artery and external carotid artery were separated through the median neck incision and threaded for standby. The proximal end of the common carotid artery and the external carotid artery were ligated, and the internal carotid artery was clamped with an artery clamp. The suture plug was cut and inserted at about 0.5 cm from the bifurcation of the common carotid artery. The artery clamp was released, and the suture plug was delivered until the blood flow of the middle cerebral artery was blocked. After 60 minutes of ischemia, the suture plug was removed to restore blood flow. The rectal temperature was maintained at 37±0.5° C. during the operation. After 48 hours of ischemia/reperfusion, the neurological function was evaluated by modified neurological severity score (MNSs). The cerebral infarction volume was detected by TTC staining, and the brain water content was detected to evaluate the cerebral edema.

[2] = target: RIPK1 kinase (Homo sapiens (Human), UniProt Q13546); assay: RIPK1 kinase inhibitory assay (ADP-Glo); type: biochemical; settings: for inhibition at 10 µM: 10 μM compound, read-out: Inhibition rate of RIPK1 at 10 μM (%)
Experimental: Materials and Instruments: ADP-Glo kinase kit (purchased from Promega), RIPK1 GST-Th-Tag (purchased from Bps Bioscience), MBP substrate (purchased from Millipore), nunc 384-well plate, ATP fluorescence analyzer Paradigm detection platform (purchased from Beckman coulter)
The compounds were diluted in DMSO and configured into a solution with a final concentration of 10 mM; Dilute RIP1 kinase from 140 ng/μL to 20 ng/μL for use. Dilute 10 mM of ATP to 100 μM for later use; Dilute 5 mg/mL of MBP to 1 mg/mL for later use. Appropriate embodiments were added into the well of the 384-well plate, 10 μl […] ATP was evenly mixed with 1 μl 1 mg/mL MB P, the mixed solution was added to the well, and 2 μL […] RIP1 kinase was added to the hole, and then incubated at room temperature for 1 h. Subsequently, 5 μL ADP-Glo reagent was added to each well and incubated at room temperature for 40 min. Then, 10 μL ADP-Glo detection reagent was added to each well and incubated at room temperature for 30 min. Finally, the RLU value (relative light unit) of each well was measured by ATP fluorometer, and each sample was repeated twice. Inhibition rate=(RLU value of blank group−RLU value of drug administration group)/RLU value of blank group×100%.

[3] = tested on: U937 cells; assay: Cell anti-necroptosis activity assay (LPS + Z-VAD-FMK, CCK8); type: cell-based; settings: Homo sapiens, U-937; PMA-differentiated U937, LPS 100 ng/ml + Z-VAD-FMK 20 μM, 24 h; read-out: EC50 of inhibition of necroptosis
Experimental: Materials: U937 cell line (human myeloid leukemia cells), RPMI 1640 medium (purchased from Gibco, USA), penicillin-streptomycin double antibody (purchased from Gibco, USA), fetal bovine serum (purchased from genetic, USA), tetradecanoylphorbol acetate (purchased from biyuntian Biotechnology Co., Ltd.), CCK8 cell proliferation detection kit (purchased from biyuntian Biotechnology Co., Ltd), Z-VAD-FMK (from APExBIO, USA) and LPS (from Sigma, USA).
U937 cells were cultured in RPMI 1640 containing 10% heat inactivated fetal bovine serum and 1% penicillin-streptomycin in a constant temperature cell incubator at 37° C. and 5% CO2, and subcultured every 1-2 days. Human monocytic cell line U937 cells could be induced to differentiate into mature monocytes/macrophages after stimulation with tetradecanoylphorbol acetate (PMA). The cells in the logarithmic growth phase were seeded in 96 well plates at a density of 4×10^4 cells/well and cultured. PMA 100 ng/ml was added for 24 h, and then the fresh medium was changed. The necroptosis model was constructed by stimulation of LPS and caspase inhibitor Z-VAD-FMK. In the experimental groups, LPS (100 ng/ml) was added for 1 hour, and then the solvent control (DMSO) or different concentrations of compounds to be tested (30 μM, 10 μM, 3 μM, 1 μM, 300 nM, 100 nM, 30 nM 7 concentrations in total) for 1 h, and then the experimental groups were treated with caspase inhibitor Z-VAD-FMK (20 μM). The cell viability was detected after 24 h of culture. The control groups were not treated with LPS, drugs and Z-VAD-FMK. No cells were added to the blank hole, only the culture medium. Each group is set with 4 parallel. CCK8 cell proliferation assay kit was used to detect the cell viability and survival rate, and the operation was carried out according to the kit instructions. The cell supernatant was added with 10 μL CCK8 detection reagent, and the cell absorbance (450 nm) was detected by a microplate reader after 0.5 h. Calculate the cell death rate (%)=(average absorbance of control well−average absorbance of experimental group)/(average absorbance of control well−average absorbance of the blank well)×100. Finally, the half effective concentration (EC50) of the drug was calculated by GraphPad Prism 7.0® software.

[4] = 2.5 mg/kg and 5 mg/kg bid, 48 h after ischemia/reperfusion

Sequence of RIPK1 kinase (Q13546 whole entry): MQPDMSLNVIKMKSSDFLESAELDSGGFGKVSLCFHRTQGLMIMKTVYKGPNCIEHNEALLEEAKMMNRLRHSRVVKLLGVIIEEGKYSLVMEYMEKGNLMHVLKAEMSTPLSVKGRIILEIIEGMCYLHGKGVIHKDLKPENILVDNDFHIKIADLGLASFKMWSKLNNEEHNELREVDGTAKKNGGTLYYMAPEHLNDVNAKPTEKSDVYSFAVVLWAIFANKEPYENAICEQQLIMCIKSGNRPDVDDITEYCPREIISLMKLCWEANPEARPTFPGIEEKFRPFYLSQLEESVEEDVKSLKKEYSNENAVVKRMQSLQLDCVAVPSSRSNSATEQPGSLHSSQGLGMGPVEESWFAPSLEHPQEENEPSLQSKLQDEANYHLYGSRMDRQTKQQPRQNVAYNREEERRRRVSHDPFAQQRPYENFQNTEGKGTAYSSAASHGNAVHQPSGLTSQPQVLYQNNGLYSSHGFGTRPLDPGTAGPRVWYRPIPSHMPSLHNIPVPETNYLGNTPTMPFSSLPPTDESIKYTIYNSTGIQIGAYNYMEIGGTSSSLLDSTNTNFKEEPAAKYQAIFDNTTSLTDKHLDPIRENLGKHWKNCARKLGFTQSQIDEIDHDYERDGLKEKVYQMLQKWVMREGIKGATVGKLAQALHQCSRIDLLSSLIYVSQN

Row | SMILES | nerve injury score [1, 4] | water content in the ischemic side [1, 4] | infarct volume ([1]; 2.5 mg/kg and 5 mg/kg bid, 48 h after ischemia/reperfusion, TTC staining) | protective effect on cerebral ischemia injury compared with edaravone ([1]; 5 mg/kg bid vs positive control edaravone 5 mg/kg QD) | pIC50 [2] | inhibition at 10 µM [2] | pEC50 [3]
1 | O=C(c1ccccc1)N1CCC2(CC1)CCN(Cc1ccccc1F)C2=O [Compound 31, 8-benzoyl-2-(2-fluorobenzyl)-2,8-diazaspiro[4.5]decan-1-one] | significantly reduce | significantly reduce | significantly reduce | stronger protective effect | 6.73 | > 50% | 5.98
2 | Cn1ccc2ccc(C(=O)N3CCC4(CC3)CCN(Cc3cc(F)ccc3F)C4=O)cc21 [Compound 49, 2-(2,5-difluorobenzyl)-8-(1-methyl-1H-indole-6-carbonyl)-2,8-diazaspiro[4.5]decan-1-one] | – | – | – | – | 7.04 | > 50% | 5.95
3 | Cn1ccc2ccc(C(=O)N3CCC4(CC3)CCN(Cc3ccccc3F)C4=O)cc21 [Compound 50, 2-(2-fluorobenzyl)-8-(1-methyl-1H-indole-6-carbonyl)-2,8-diazaspiro decan-1-one] | – | – | – | – | 6.99 | > 50% | 5.81
